PMC8498988, “Scaffold Hybridization Strategy Leads to the Discovery of Dopamine D3 Receptor-Selective or Multitarget Bitopic Ligands Potentially Useful for Central Nervous System Disorders” (ACS Chemical Neuroscience, 2021)

What was measured:
human 5-HT1AR = molecular target: T1, human 5-HT1AR (Homo sapiens, UniProt P08908); assay: Radioligand binding assay at human 5-HT1AR ([3H]8-OH-DPAT, HeLa cells); conditions: HeLa cells expressing h5-HT1AR, read-out: Ki ± SEM, 5-HT1AR
T1 construct: expressed in transfected cells; host or cells: HeLa
T1 sequence (P08908 1-422): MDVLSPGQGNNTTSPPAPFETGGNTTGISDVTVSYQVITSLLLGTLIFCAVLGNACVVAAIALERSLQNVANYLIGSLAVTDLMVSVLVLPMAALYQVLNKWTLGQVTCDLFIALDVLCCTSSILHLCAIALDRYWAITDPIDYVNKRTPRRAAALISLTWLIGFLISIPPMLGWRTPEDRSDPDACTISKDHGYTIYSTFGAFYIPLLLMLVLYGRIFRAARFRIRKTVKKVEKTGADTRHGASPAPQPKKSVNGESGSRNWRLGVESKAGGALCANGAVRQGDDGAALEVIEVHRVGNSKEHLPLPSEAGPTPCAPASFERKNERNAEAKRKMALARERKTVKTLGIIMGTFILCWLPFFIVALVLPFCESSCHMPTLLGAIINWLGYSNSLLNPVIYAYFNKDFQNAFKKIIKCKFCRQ
Protocol: A human cell line (HeLa) stably transfected with genomic clone G-21 coding for the human 5-HT1AR was used. Cells were grown as monolayers in Dulbecco’s modified Eagle’s medium supplemented with 10% fetal calf serum and gentamycin (100 μg/mL) under 5% CO2 at 37 °C. Cells were detached from the growth flask at 95% confluency by a cell scraper and were lysed in ice-cold Tris (5 mM) and EDTA buffer (5 mM, pH 7.4). Homogenates were centrifuged for 20 min at 40000g, and pellets were resuspended in a small volume of ice-cold Tris/EDTA buffer (above) and immediately frozen and stored at -70 °C until use. On the day of experiment, cell membranes (80–90 μg of protein) were resuspended in binding buffer (50 mM Tris, 2.5 mM MgCl2, and 10 mM pargyline, pH 7.4). Membranes were incubated in a final volume of 0.32 mL for 30 min at 30 °C with 1 nM [^3H]8-OH-DPAT in the absence or presence of various concentrations of competing drugs (1 pM to 1 μM); each experimental condition was performed in triplicate. Nonspecific binding was determined in the presence of 10 μM 5-HT.

D3R = D3R (Homo sapiens, UniProt P35462); assay: D3 mitogenesis functional assay (CHOp-D3 cells); assay type: cell-based; design: expressed in transfected cells; host or cells: CHOp-D3 cells; conditions: for EC50 / % stimul., D3 mitogenesis assay: agonist mode; for % stimul., D3 mitogenesis assay: standard agonist quinpirole; for IC50 / % inhibition (efficacy), D3R when tested as an antagonist: antagonist mode; for IC50: inhibition of quinpirole stimulation of mitogenesis, read-out: IC50, D3R when tested as an antagonist; for % inhibition (efficacy), D3R when tested as an antagonist: standard antagonist NGB 2904; for functional behavior at D3R: in words
Chain of D3R (P35462 whole entry): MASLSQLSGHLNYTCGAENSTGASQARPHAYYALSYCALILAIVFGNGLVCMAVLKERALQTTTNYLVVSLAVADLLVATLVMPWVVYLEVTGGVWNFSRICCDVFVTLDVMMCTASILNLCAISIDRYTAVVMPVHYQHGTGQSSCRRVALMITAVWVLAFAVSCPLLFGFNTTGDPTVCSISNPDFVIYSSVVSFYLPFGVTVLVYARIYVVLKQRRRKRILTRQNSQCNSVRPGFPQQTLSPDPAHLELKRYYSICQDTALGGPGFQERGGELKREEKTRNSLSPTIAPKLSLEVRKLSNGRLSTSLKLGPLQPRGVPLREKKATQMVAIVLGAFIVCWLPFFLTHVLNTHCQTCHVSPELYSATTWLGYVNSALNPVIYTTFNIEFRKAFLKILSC
Protocol: (§1) CHOp-D2 and CHOp-D3 cells are maintained in α-MEM with 10% fetal bovine serum (FBS, Atlas Biologicals), 0.05% pen-strep, and 400 μg/mL of G418. […] The cells are incubated at 37 °C in α-MEM with 10% FBS. After 48–72 h, the cells are rinsed twice with serum-free α-MEM and incubated for 24 h at 37 °C. Serial dilutions of test compounds are made by the Biomek robotics system in serum-free α-MEM. In the functional assay for agonists, the medium is removed and replaced with 100 μL of test compound in serum-free α-MEM. In the antagonist assay, the serial dilution of the putative antagonist test compound is added in 90 μL (1.1× of final concentration) and 300 nM quinpirole (30 nM final) is added in 10 μL. After another 24 h (D2) or 16 h (D3) incubation at 37 °C, 0.25 μCi of [^3H]thymidine in αMEM supplemented with 10% FBS is added to each well, and the plates are further incubated for 2 h at 37 °C. The cells are trypsinized by addition of 10× trypsin solution (1% trypsin in calcium–magnesium-free phosphate-buffered saline), and the plates are filtered and counted as usual. Quinpirole is run each day as an internal control, and dopamine is included for comparative purposes.

human D1R = molecular target: T2, human D1R (Homo sapiens, UniProt P21728); assay: Radioligand binding assay at human D1R ([3H]SCH23390, mouse fibroblast LhD1 cells); conditions: [3H]SCH23390, mouse fibroblast cells expressing hD1R; read-out: Ki ± SEM, D1R
T2 construct: expressed in transfected cells; host or cells: mouse fibroblast cells (LhD1)
T2 sequence (P21728 whole entry): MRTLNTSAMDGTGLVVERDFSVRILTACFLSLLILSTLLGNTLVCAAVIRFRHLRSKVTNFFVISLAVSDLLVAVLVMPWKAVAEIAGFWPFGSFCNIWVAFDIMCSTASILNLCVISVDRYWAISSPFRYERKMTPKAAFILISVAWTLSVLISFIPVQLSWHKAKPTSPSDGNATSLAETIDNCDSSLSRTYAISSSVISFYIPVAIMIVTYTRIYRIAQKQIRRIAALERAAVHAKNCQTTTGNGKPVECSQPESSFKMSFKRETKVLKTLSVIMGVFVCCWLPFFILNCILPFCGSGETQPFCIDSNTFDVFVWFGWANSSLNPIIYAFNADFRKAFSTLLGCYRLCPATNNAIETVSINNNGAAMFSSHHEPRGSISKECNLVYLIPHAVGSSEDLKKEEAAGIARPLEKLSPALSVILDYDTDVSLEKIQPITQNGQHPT
Protocol: Mouse fibroblast cells expressing the human D1R at high density (LhD1 cells) are used. The cells are grown to confluence in DMEM containing 10% FetalClone1 serum (FCS, HyClone), 0.05% penicillin–streptomycin (pen-strep), and 400 μg/mL of Geneticin (G418). Three confluent 150 mm plates yield enough membranes for three assay plates with ∼10–15 μg protein per well. The cells from three 150 mm plates are scraped and centrifuged at 500×g for 5 min. The pellet is overlaid with 2 mL assay buffer (50 mM Tris–HCl containing 120 mM NaCl, 5 mM KCl, 2 mM CaCl2, and 1 mM MgCl2) and frozen at −70 °C. On the day of experiment, the pellet is homogenized in 30 mL assay buffer with a polytron. Cell homogenate (100 μL) is added to wells containing 800 μL of test drug or buffer. After a 10 min preincubation, 100 μL of [^3H]SCH-23390 (0.18 nM final concentration) is added. The plates are incubated at 25 C for 60 min. The reaction is terminated by filtration using a Tomtec 96 well harvester, and the radioactivity on the filters is determined using a PerkinElmer microbeta scintillation counter. Nonspecific binding is determined with 1 μM SCH-23390.

D2R = D2R (Homo sapiens, UniProt P14416); assay: D2 mitogenesis functional assay (CHOp-D2 cells); assay type: cell-based; design: expressed in transfected cells; host or cells: CHOp-D2 cells; conditions: for IC50 / % inhib., D2 mitogenesis assay: antagonist mode; for IC50: inhibition of quinpirole stimulation of mitogenesis; for % inhib., D2 mitogenesis assay: standard antagonist (+)-butaclamol; for functional behavior at D2R: in words
Chain of D2R (P14416 whole entry): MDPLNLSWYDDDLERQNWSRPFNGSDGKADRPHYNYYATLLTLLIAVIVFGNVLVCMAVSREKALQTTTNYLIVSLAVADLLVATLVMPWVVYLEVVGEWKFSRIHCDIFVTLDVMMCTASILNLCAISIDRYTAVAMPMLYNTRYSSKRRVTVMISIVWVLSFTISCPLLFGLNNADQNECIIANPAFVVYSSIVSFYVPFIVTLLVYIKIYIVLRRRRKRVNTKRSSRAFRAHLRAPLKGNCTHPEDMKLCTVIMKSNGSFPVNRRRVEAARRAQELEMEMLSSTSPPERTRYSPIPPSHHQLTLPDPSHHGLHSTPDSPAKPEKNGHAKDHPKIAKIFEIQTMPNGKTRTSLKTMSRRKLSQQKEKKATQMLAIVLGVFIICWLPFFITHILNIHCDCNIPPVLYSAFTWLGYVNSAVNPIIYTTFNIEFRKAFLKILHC
Protocol: as §1

O=C(NCCCCN1CCN(c2cccc(Cl)c2Cl)CC1)C1COCC(c2ccccc2)(c2ccccc2)O1 (stereo not drawn) [compound 3, N-(4-(4-(2,3-Dichlorophenyl)piperazin-1-yl)butyl)-6,6-diphenyl-1,4-dioxane-2-carboxamide]
Ki (human 5-HT1AR): 288 ± 15 nM
EC50 (D3R): 9.8 ± 1.6 nM
% stimul., D3 mitogenesis assay (D3R): 36%
IC50 (D3R): 38 nM
% inhibition (efficacy), D3R when tested as an antagonist (D3R): 82.7%
functional behavior at D3R (D3R): partial agonist
Ki (human D1R): 442 ± 52 nM
IC50 (D2R): 139 nM
% inhib., D2 mitogenesis assay (D2R): (93.5) %
functional behavior at D2R (D2R): weak D2R antagonist

O=C(NCCCCN1CCN(c2cccc(Cl)c2Cl)CC1)C1COC(c2ccccc2)(c2ccccc2)CO1 (stereo not drawn) [compound 6, N-(4-(4-(2,3-Dichlorophenyl)piperazin-1-yl)butyl)-5,5-diphenyl-1,4-dioxane-2-carboxamide]
Ki (human 5-HT1AR): 9.1 ± 0.97 nM
EC50 (D3R): 2.72 nM
% stimul., D3 mitogenesis assay (D3R): 25.7%
IC50 (D3R): 6.6 nM
% inhibition (efficacy), D3R when tested as an antagonist (D3R): 64.0%
functional behavior at D3R (D3R): D3R and 5-HT2CR partial agonists with high and low potency, respectively
Ki (human D1R): 700 ± 150 nM
IC50 (D2R): 8.5 nM
% inhib., D2 mitogenesis assay (D2R): (95.2) %
functional behavior at D2R (D2R): efficacious D2R and 5-HT2AR antagonists with high and low potency, respectively

O=C(NCCCCN1CCN(c2cccc(Cl)c2Cl)CC1)C1COc2ccccc2O1 (stereo not drawn) [compound 9, N-(4-(4-(2,3-Dichlorophenyl)piperazin-1-yl)butyl)-2,3-dihydrobenzo[b][1,4]dioxine-2-carboxamide]
Ki (human 5-HT1AR): 23.8 ± 5.2 nM
EC50 (D3R): 5 ± 1.7 nM
% stimul., D3 mitogenesis assay (D3R): 34.0%
IC50 (D3R): 40.4 nM
% inhibition (efficacy), D3R when tested as an antagonist (D3R): 64.2%
functional behavior at D3R (D3R): D3R and 5-HT2CR partial agonists with high and low potency, respectively
Ki (human D1R): 680 ± 160 nM
IC50 (D2R): 40 nM
% inhib., D2 mitogenesis assay (D2R): (94.4) %
functional behavior at D2R (D2R): efficacious D2R and 5-HT2AR antagonists with high and low potency, respectively
